Data: patent publication US20210045385A1, “PYRIDAZINONE-SUBSTITUTED KETOXIMES AS HERBICIDES” (FMC Corporation, priority 2018, published 2021)

How the values were obtained:
[1] = test system: Italian ryegrass (Lolium multiflorum); experiment: Test A preemergence, visual plant response rating; format: in vivo
In short: (§1)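 Greenhouse pot test in loam–sand soil mix: compound in a surfactant-containing non-phytotoxic solvent applied preemergence (directed soil spray) or postemergence (one- to two-leaf plants, 2–10 cm). Injury scored visually after ~10 days, 0–100.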

[2] = test system: barnyardgrass (Echinochloa crus-galli); experiment: Test A preemergence, visual plant response rating; format: in vivo
In short: as §1

[3] = test system: foxtail, giant (giant foxtail, Setaria faberii); experiment: Test A preemergence, visual plant response rating; format: in vivo
In short: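 Ratings 0–100 (100 = complete control), visual, vs untreated controls at ~10 days. Application pre- or postemergence; solvent mixture with surfactant; loam/sand medium.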

kochia (Kochia scoparia) [4] = experiment: Test A preemergence, visual plant response rating; format: in vivo
In short: as §1

[5] = test system: pigweed (Amaranthus retroflexus); experiment: Test A preemergence, visual plant response rating; format: in vivo
In short: as §1

[6] = test system: Italian ryegrass (Lolium multiflorum); experiment: Test A postemergence, visual plant response rating; format: in vivo
In short: as §1

[7] = test system: barnyardgrass (Echinochloa crus-galli); experiment: Test A postemergence, visual plant response rating; format: in vivo
In short: as §1

[8] = test system: blackgrass (Alopecurus myosuroides); experiment: Test A postemergence, visual plant response rating; format: in vivo
In short: as §1

corn (Zea mays) = experiment: Test A postemergence, visual plant response rating; format: in vivo
In short: as §1

[9] = test system: foxtail, giant (giant foxtail, Setaria faberii); experiment: Test A postemergence, visual plant response rating; format: in vivo
In short: as §1

[10] = test system: galium (catchweed bedstraw, Galium aparine); experiment: Test A postemergence, visual plant response rating; format: in vivo
In short: as §1

kochia (Kochia scoparia) [11] = experiment: Test A postemergence, visual plant response rating; format: in vivo
In short: as §1

[12] = test system: pigweed (Amaranthus retroflexus); experiment: Test A postemergence, visual plant response rating; format: in vivo
In short: as §1

[13] = test system: ragweed (common ragweed, Ambrosia elatior); experiment: Test A postemergence, visual plant response rating; format: in vivo
In short: as §1

[14] = test system: wheat (Triticum aestivum); experiment: Test A postemergence, visual plant response rating; format: in vivo
In short: as §1

[15] = test system: barnyardgrass (Echinochloa crus-galli); experiment: Test B flooded paddy test, visual plant response rating; format: in vivo; conditions: 250 g ai/ha, Flood, applied to paddy water, 2-leaf stage, evaluated after 13 to 15 days
In short: (§2)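 Flooded-pot treatment: water 3 cm over the soil, chemical delivered into that water, depth unchanged for the duration. Assessed by eye versus controls following 13–15 greenhouse days; plants were at 2 leaves when dosed.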

[16] = test system: ducksalad (Heteranhera limosa); experiment: as above; format: in vivo; conditions: 250 g ai/ha, Flood, applied to paddy water, 2-leaf stage, evaluated after 13 to 15 days
In short: as §2

rice (Oryza sativa) = experiment: as above; format: in vivo; conditions: 250 g ai/ha, Flood, applied to paddy water, 2-leaf stage, evaluated after 13 to 15 days
In short: as §2

[17] = test system: sedge, umbrella (small-flower umbrella sedge, Cyperus difformis); experiment: as above; format: in vivo; conditions: 250 g ai/ha, Flood, applied to paddy water, 2-leaf stage, evaluated after 13 to 15 days
In short: as §2

[18] = 125 g ai/ha, preemergence, 0 to 100 scale, 0 no effect, 100 complete control
[19] = 500 g ai/ha Preemergence, approx. 10 days
[20] = 500 g ai/ha, postemergence, 0 is no effect, 100 is complete control
[21] = Postemergence, 125 g ai/ha, 0 to 100 scale (0 no effect, 100 complete control)

Q: Which results are given for `CO/N=C(/c1c(O)c(C)nn(C)c1=O)c1cc(Br)cc2ccccc12` [Compound 99, 4-[(E)-(3-bromo-1-naphthalenyl)(methoxyimino)methyl]-5-hydroxy-2,6-dimethyl-3(2H)-pyridazinone]?
A: Ryegrass, Italian plant response rating [1, 18]: 90; Ryegrass, Italian plant response rating (0 to 100 scale) [1, 19]: 100; Barnyardgrass plant response rating [2, 18]: 90; Barnyardgrass plant response rating (0 to 100 scale) [2, 19]: 100; Foxtail, Giant plant response rating [3, 18]: 100; Foxtail, Giant plant response rating (0 to 100 scale) [3, 19]: 100; Kochia plant response rating (kochia (Kochia scoparia) [4]; [18]): 70; Kochia plant response rating (0 to 100 scale) (kochia (Kochia scoparia) [4]; [19]): 90; Pigweed plant response rating [5, 18]: 90; Pigweed plant response rating (0 to 100 scale) [5, 19]: 100; Ryegrass, Italian plant response rating (0 to 100 scale) [6, 20]: 90; Ryegrass, Italian plant response rating [6, 21]: 90; Barnyardgrass plant response rating (0 to 100 scale) [7, 20]: 90; Barnyardgrass plant response rating [7, 21]: 80; Blackgrass plant response rating (0 to 100 scale) [8, 20]: 100; Blackgrass plant response rating [8, 21]: 90; Corn plant response rating (0 to 100 scale) (corn (Zea mays); [20]): 60; Corn plant response rating (corn (Zea mays); [21]): 30; Foxtail, Giant plant response rating (0 to 100 scale) [9, 20]: 80; Foxtail, Giant plant response rating [9, 21]: 80; Galium plant response rating (0 to 100 scale) [10, 20]: 100; Galium plant response rating [10, 21]: 90; Kochia plant response rating (0 to 100 scale) (kochia (Kochia scoparia) [11]; [20]): 70; Kochia plant response rating (kochia (Kochia scoparia) [11]; [21]): 50; Pigweed plant response rating (0 to 100 scale) [12, 20]: 100; Pigweed plant response rating [12, 21]: 60; Ragweed plant response rating (0 to 100 scale) [13, 20]: 90; Ragweed plant response rating [13, 21]: 90; Wheat plant response rating (0 to 100 scale) [14, 20]: 80; Wheat plant response rating [14, 21]: 50; Plant response rating, Barnyardgrass (0 to 100 scale, 0 is no effect, 100 is complete control) [15]: 25; Plant response rating, Ducksalad (0 to 100 scale, 0 is no effect, 100 is complete control) [16]: 70; Plant response rating, Rice (0 to 100 scale, 0 is no effect, 100 is complete control) (rice (Oryza sativa)): 15; Plant response rating, Sedge, Umbrella (0 to 100 scale, 0 is no effect, 100 is complete control) [17]: 70; melting point: 194 to 198 °C
